Consider nine compounds from US4430339A, “Substituted oxiranecarboxylic acids, their preparation and their use as medicaments” (Byk Gulden Lomberg Chemische Fabrik Gesellschaft mit …, priority 1980, dated 1984).

Where two headings read alike, the source gives them in different places.

In data set [1] the test system is blood glucose concentration. As to the kind of experiment: Determination of glucose in the blood after a single oral administration (fasted, metabolically healthy rats). The following applies: Rattus norvegicus, read-out: Change in the blood glucose concentration (in %) in vivo (maximum, relative to the control group). More on the design: species or system Sprague-Dawley rats. The method, then: Table I reflects investigations of the effect of representative compounds according to the invention on the blood glucose concentration of fasting, metaboically healthy rats. Column A in each case gives the maximum lowering of the blood glucose concentration of rats which have been fasted (in %, relative to the control group) which is observed in the course of 6 hours after single oral administration of 0.6 mmole of substance/kg of body weight. Column B provides data relating to acute toxicity (LD50; mice, peroral administration).
Column A = maximum change in the blood glucose concentration (in %,
relative to the control animals) in vivo in rats which have been fasted a
1. Determination of glucose in the blood after a single oral administration.
Young male Sprague-Dawley rats (body weight: 150 to 200 g) are used. The animals (6 animals per dose) are kept in Makrolon cages with up to 4 animals per cage (ambient temperature: 23° C., relative atmospheric humidity: 55%, fixed day/night rhythm [12/12 hours], standard diet: Altromin®). The rats are deprived of the feed 18 hours before the first sample of blood is taken. Water is available ad libitum. Samples of blood are taken from the postorbital plexus by puncture immediately before and 2, 4 and 6 hours after administration of the substance.
After deproteinization with perchloric acid, the glucose in the blood is determined by means of the enzymatic HK/G-6-PDH method of R. Richterich [Klinische Chemie, Theorie und Praxis, (Clinical Chemistry, Theory and Practice), 3rd edition, 1971, S. Karger Verlag, Zurich-Basle, page 275]. A control group (10 animals, treated with pure solvent) is also investigated in each case for comparison.

A short description of another data set: in vivo. The settings on record: mouse, po, mice p.o., observation time 7 days, read-out: Acute toxicity LD50 (converted). The method, then:
Column B provides data relating to acute toxicity (LD50; mice, peroral administration).
2. Determination of the toxicity.
Various doses of the substances (volume: 10 ml/kg) are administered orally by means of a stomach tube. The observation time is 7 days.

Where [2] appears, read: fasted rats, single oral administration of 0.6 mmole/kg, maximum in the course of 6 hours.

As usually defined, the LD50 is the dose at which mortality reaches 50%.

On to `CCCCNC(=N)NC(=N)N` [Serial No. 1, Buformin, reference compound], for which the change in vivo at 600 µmol/kg in data set [1] (po, 6 h) was -8%.

With `[H]/N=C(/N)N/C(=N/[H])NCCc1ccccc1` [Serial No. 2, Phenformin, reference compound], the change in vivo at 600 µmol/kg in data set [1] (setting [2]) is -6%.

Turning to `CCOC(=O)C1(CCCC2CCCCC2)CO1` (stereo not shown) [Serial No. 3, 2-(3-Cyclohexylpropyl)-oxirane-2-carboxylic acid ethyl ester], in “in vivo”, the median lethal dose (LD50) is 1400 mg/kg. In data set [1] (setting [2]), the change in vivo at 600 µmol/kg is -24%.

On to `CCOC(=O)C1(CCCCCC2CCCCC2)CO1` (stereo not shown) [Serial No. 4, 2-(5-Cyclohexylpentyl)-oxirane-2-carboxylic acid ethyl ester], for which the LD50 in the data set “in vivo” was 520 mg/kg. Also, the change in vivo at 600 µmol/kg in data set [1] (setting [2]) is -48%.

As for `CCOC(=O)C1(CCCC2CCCC2)CO1` (stereo not shown) [Serial No. 5, 2-(3-Cyclopentylpropyl)-oxirane-2-carboxylic acid ethyl ester], the 50% lethal dose (LD50) in the data set “in vivo” is 2400 mg/kg. Further, the change in vivo at 600 µmol/kg in data set [1] (setting [2]) is -15%.

On to `CCOC(=O)C1(CCCCC2CCCC2)CO1` (stereo not shown) [Serial No. 6, 2-(4-Cyclopentylbutyl)-oxirane-2-carboxylic acid ethyl ester], for which, in “in vivo”, the LD50 was 1600 mg/kg. Moreover, the change in vivo at 600 µmol/kg in data set [1] (setting [2]) was -21%.

As to `CCOC(=O)C1(CCOCCCC2CCCCC2)CO1` (stereo not shown) [Serial No. 7, 2-[2-(3-Cyclohexylpropyloxy)-ethyl]-oxirane-2-carboxylic acid ethyl ester], in “in vivo”, the LD50 is 570 mg/kg. Also, the change in vivo at 600 µmol/kg in data set [1] (setting [2]) is -30%.

For `CCOC(=O)C1(CCCC2CCCCCC2)CO1` (stereo not shown) [Serial No. 8, 2-(3-Cycloheptylpropyl)-oxirane-2-carboxylic acid ethyl ester], the LD50 in “in vivo” is 790 mg/kg. The change in vivo at 600 µmol/kg in data set [1] (setting [2]) is -22%.

With `CCOC(=O)C1(CCCCCC2CCCCCC2)CO1` (stereo not shown) [Serial No. 9, 2-(5-Cycloheptylpentyl)-oxirane-2-carboxylic acid ethyl ester], the 50% lethal dose (LD50) in “in vivo” was 330 mg/kg. Also, the change in vivo at 600 µmol/kg in data set [1] (setting [2]) was -18%.
